Measurements reported in patent publication US5811512A, “Non-peptide peptidomimetics and related cyclic hexapeptides” (The Trustees of the University of Pennsylvania, priority 1996, dated 1998).
Read-outs that look alike come from different tables or passages of the source.

Key:
[1] = test system: somatostatin receptors of AtT-20 cells; conditions: read-out: IC50 for binding somatostatin receptors of AtT-20 cells, cited from earlier work
SRIF receptor = SRIF receptor affinity: displacement of 125I-CGP-23996 from AtT-20 cells; assay type: binding; conditions: displacement of 125I-CGP-23996, AtT-20 cells
Procedure: The affinity of a variety of compounds for the SRIF receptor was determined by studying the displacement of ^125 I-CGP-23996 from AtT-20 cells using the method generally in accordance with Raynor and Reisine, Journal of Pharmacology and Experimental Therapeutics, 1989, 251;2, 510.

[2] = molecular target: T1, human neurokinin-1 receptor (NK1R) (Homo sapiens, UniProt P25103); assay: Substance P receptor binding: 125I-substance P displacement from human NK1R expressed in COS cells; conditions: 125I-SP, COS cells expressing human NK1R; read-out: IC50 (concentration required to inhibit the binding of substance P to the human neurokinin-1 receptor by 50%)
T1 construct: the cDNA for the human NK1R was cloned into the expression vector pCDM9; expressed in transfected cells; host or cells: COS cells (transient, electroporation, vector pCDM9)
Procedure: The affinity of a variety of compounds for the substance P receptor was determined employing the following procedure.
A. Receptor Expression in COS
To express the cloned human neurokinin-1 receptor (NK1R) transiently in COS, the cDNA for the human NK1R was cloned into the expression vector pCDM9 which was derived from pCDM8 (Invitrogen) by inserting the ampicillin resistance gene (nucleotide 1973 to 2964 from Bluescript SK+) into the Sac II site. Transfection of 20 μg of the plasmid DNA into 10 million COS cells was achieved by electroporation in 800 μl of the transfection buffer ([…], 1.2 mM MgCl2, 2.4 mM K2 HPO4, 0.6 mM KH2 PO4, 10 nM glucose, 10 mM HEPES pH 7.4) at 260V and 950 μF using the IBI Genezapper (IBI, New Haven, Conn.). The cells were incubated in 10% fetal calf serum, 2 mM glutamine, 100 U/ml penicillin-streptomycin, and 90% DMEM media (Gibco, Grand Island, N.Y.) in 5% CO2 at 37° C. for three days before the binding assay.
B. Assay Protocol using COS
The binding assay of human NK1R expressed in COS cells is based on the use of ^125 I-substance P (^125 I-SP, from DuPont, Boston, Mass.) as a radioactively labeled ligand which competes with unlabeled substance P or any other ligand for binding to the human NK1R. Monolayer cell cultures of COS were dissociated by the non-enzymatic solution (Specialty Media, Lavallette, N.J.) and resuspended in appropriate volume of the bind buffer (50 mM Tris pH 7.5, 5 mM MnCl2, 150 mM NaCl, 0.04 mg/ml bacitracin, 0.004 mg/ml leupeptin, 0.2 mg/ml BSA, 0.01 mM phosphoramidon) such that 200 μl of the cell suspension would give rise to about 10,000 cpm of specific ^125 I-SP binding (approximately 50,000 to 200,000 cells). In the binding assay, 200 μl of cells were added to a tube containing 20 μl of 1.5 to 2.5 nM of ^125 I-SP and 20 μl of unlabeled substance P or any other test compound. The tubes were incubated at 4° C. or at room temperature for 1 hour with gentle shaking. The bound radioactivity was separated from unbound radioactivity by GF/C filter (Brandel, Gaithersburg, Md.) which was pre-wetted with 0.1 polyethylenimine. The filter was washed with 3 ml of wash buffer (50 Tris pH 7.5, 5 mM MnCl21 150 mM NaCl) three times and its radioactivity was determined by gamma counter.
A variety of compounds were tested according to the COS cell procedure. The concentration of compound required to inhibit the binding of substance P to the human neurokinin-1 receptor by 50% was measured.

Opiate Receptor = assay: Radioligand displacement from brain cells, opiate receptor; assay type: binding; conditions: 3H-naloxone (0.5 nM)
β-adrenergicreceptor = conditions: AtT-20 cells; cited from earlier work
Dopamine Receptor = assay: Radioligand displacement from brain cells, dopamine receptor; assay type: binding; conditions: 3H-spiperone (0.1 nM)
Muscarinic cholingeric = assay type: binding; conditions: 3H-QNB (0.1 nM)
β-adrenergic receptor = assay: Radioligand displacement from AtT-20 and brain cells, β-adrenergic receptor; assay type: binding; conditions: 125I-CYP (0.1 nM)

T1 sequence (P25103 whole entry): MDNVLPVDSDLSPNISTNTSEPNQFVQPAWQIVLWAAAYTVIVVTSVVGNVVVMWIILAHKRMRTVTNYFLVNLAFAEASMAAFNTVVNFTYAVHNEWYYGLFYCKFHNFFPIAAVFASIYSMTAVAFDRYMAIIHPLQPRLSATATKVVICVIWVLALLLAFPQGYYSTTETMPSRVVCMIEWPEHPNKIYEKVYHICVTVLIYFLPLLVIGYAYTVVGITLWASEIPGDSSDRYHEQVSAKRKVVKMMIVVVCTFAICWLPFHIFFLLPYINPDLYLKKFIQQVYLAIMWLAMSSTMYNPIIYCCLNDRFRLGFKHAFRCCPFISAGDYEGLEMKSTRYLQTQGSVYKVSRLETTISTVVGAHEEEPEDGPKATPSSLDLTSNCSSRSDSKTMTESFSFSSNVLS

Row | Compound | IC50 [1] [µM] | IC50 (SRIF receptor) [µM] | IC50 [2] [µM] | Binding Inhibition (Opiate Receptor) [%] | concentration required for β-adrenergic receptor binding relative to somatostatin receptor (β-adrenergicreceptor) | Binding Inhibition (Dopamine Receptor) [%] | Binding Inhibition (Muscarinic cholingeric; AtT-20) [%] | Binding Inhibition (Muscarinic cholingeric; Brain) [%] | Binding Inhibition (β-adrenergic receptor; AtT-20) [%] | Binding Inhibition (β-adrenergic receptor; Brain) [%] | IC50 ([1]; also printed as 9.3×10^-9 M) [µM]
1 | 2-(1H-indol-3-yl)ethyl-6-O-(5-aminopentyl)-2,4-di-O-deoxy-β-D-glucopyranoside [Compound 2] | ~1 | 1.3 | 0.18 |  |  |  |  |  |  |  | 
2 | NCCCCCOC[C@H]1O[C@@H](OCCc2c[nH]c3ccccc23)[C@H](OCc2ccccc2)[C@@H](OCc2ccccc2)[C@@H]1OCc1ccccc1 [Compound 1, 2-(1H-Indol-3yl)ethyl-6-O-(5-aminopentyl)-2,3,4-tri-O-benzyl-β-D-glucopyranoside] | ~9.5 | 9.5 | 0.12 | 55 | five fold higher concentration | 82 | 20 | 83 | ~70 | 45 | 
3 | C[C@H](N)C(=O)NCC(=O)N[C@H]1CSSC[C@@H](C(=O)O)NC(=O)[C@H](CO)NC(=O)[C@H]([C@@H](C)O)NC(=O)[C@H](Cc2ccccc2)NC(=O)[C@H]([C@@H](C)O)NC(=O)[C@H](CCCCN)NC(=O)[C@H](Cc2c[nH]c3ccccc23)NC(=O)[C@H](Cc2ccccc2)NC(=O)[C@H](Cc2ccccc2)NC(=O)[C@H](CC(N)=O)NC(=O)[C@H](CCCCN)NC1=O [SRIF, somatostatin, reference compound] |  | 0.0093 |  |  |  |  |  |  |  |  | ~0.0093
